# Square brackets hold non-standard residues; d marks the D form. Peptide text beside a SMILES is read from it. NMeF = CN[C@@H](Cc1ccccc1)C(=O)O
# Experiments:
# [1] = test system: visceral pain induced by intraperitoneal injection of acetic acid solution in mice; experiment: Acetic acid writhing visceral pain model; assay type: in vivo, mouse
# Experimental: The mice were placed in a transparent polymethyl methacry late box (20×20×30 cm) and adapted to the environment for 10-15 min; after the adaptation, compound 9 was administered intrathecally, intraperitoneally or subcutaneously to the mice. After 5 min, the mice were intraperitoneally injected with 10 ml/kg of 0.6% acetic acid solution, 5 min. after the intraperitoneal injection of acetic acid solution, the writhing response of the mice was recorded for 10 min. The mice developed characteristic reactions such as twisting of the trunk, concave in the abdomen, elevation of the buttocks and extension of the hind limbs, which were recorded as a writhing reaction.
# The experimental data was expressed by MPE (maximum possible effect), MPE (%)=100×[(the number of writhing bodies in the physiological saline group− the number of writhing bodies in the drug group)/the number of writhing bodies in the physiological saline group]. The relevant MPE data were expressed as mean±standard error (Means±S.E.M.), the data for differences between groups treated with different drug concentrations were analyzed by one-way ANOVA (Bonferroni test in one-way ANOVA) for statistics and analysis, ***P<0.001 represents that there was a significant difference between the MPE value of the drug-treated group and that of the saline group.
# [2] = test system: inflammatory pain in mice; experiment: Inflammatory pain model (Carrageenan or CFA); assay type: in vivo, mouse
# Experimental: Inflammatory pain in mice was measured using a hot stinging apparatus and an electronic Von Frey tenderness instrument, and the basal pain threshold of normal mice was firstly determined. Then 20 μl of 2% Carrageenan solution or CFA solution was injected subcutaneously into the mouse paw. The thermal and mechanical pain sensitivity value values of the injected paw in mice were tested after 24 hours (Carrageenan) or 4 days (CFA), and then compound 9 was administered into lateral ventricle, intrathecally or subcutaneously, and the pain threshold at different time points after administration were recorded.
# The experimental data were expressed as mean±standard error (Means±S.E.M.), and the data for differences between groups treated with different drug concentrations were analyzed by one-way ANOVA (Bonferroni test in one-way ANOVA) for statistics and analysis, ***P<0.001 represents that there was a significant difference between the pain threshold value of the drug-treated group and that of the saline group.
compound,measurement,setting,value
"C[C@@H](NC(=O)[C@@H](N)Cc1ccc(O)cc1)C(=O)NCC(=O)N(C)[C@@H](Cc1ccccc1)C(=O)NCC(=O)N1CCC[C@H]1C(=O)N[C@@H](CCC(N)=O)C(=O)N[C@@H](CCCNC(=N)N)C(=O)N[C@@H](Cc1ccccc1)C(N)=O [Compound 9, Tyr-D-Ala-Gly-NMe-Phe-Gly-Pro-Gln-Arg-Phe-NH2] (H-Y[dA]G[NMeF]GPQRF-NH2)",ED50 value (95% confidence interval),[1]; intraperitoneal (i.p.),0.721 (0.594 to 0.875) mg/kg
same,ED50 value (95% confidence interval),[1]; intrathecal (i.t.),0.657 (0.595 to 0.727) pmol
same,ED50 value (95% confidence interval),[1]; subcutaneous (s.c.),0.789 (0.702 to 0.887) mg/kg
same,"analgesic ED50 value, inflammatory pain",[2]; intrathecal (FIG. 15: carrageenan-induced),2.98 (2.50-3.54) pmol
same,"analgesic ED50 value, inflammatory pain",[2]; lateral ventricle (FIG. 14: CFA-induced),5.20 (2.06-13.10) pmol
same,"analgesic ED50 value, inflammatory pain",[2]; subcutaneous (FIG. 16: carrageenan-induced),3.24 (2.81-3.74) mg/kg
